This is an account of results in US6642205B2, “Methods and compositions for reducing side effects in chemotherapeutic treatments” (Pro-Pharmaceuticals, Inc., priority 2000, dated 2003).

The nature of series [1]: Side effects (deaths) after single dose intravenous injection in healthy mice, 20 days observation. The class given is in vivo, male BDF1 mice. Particulars: for Deaths per group / Life span after treatment (except survived animals): single i.v.; for Deaths per group: six animals each; for Life span after treatment (except survived animals): one value per dead animal; for toxicity compared to Adriamycin: healthy mice, single i.v. dose. An excerpt:
Male BDF1 mice were used as the experimental animals for measuring side effects of therapeutic preparations. Mice were acclimated in the laboratory one week prior to experimentation. The animals were housed five per cage in a 12-hour light/dark cycle. The animals received filtered water and sterile rodent food ad libitum. The animals were observed daily and clinical signs were noted. Weight of the animals was in the range of 19-21 g at the day of treatment initiation. The mice were healthy, not previously used in other experimental procedures.

The subject of series [2] is lymphocyte leukemia P-388. The experiment in a line: Antitumor effect on subcutaneously implanted lymphocyte leukemia P-388 in mice, single i.v. injection. The class given is in vivo, male BDF1 mice. Particulars: for Average weight gain/loss from day 1 to day 7 / Nonspecific deaths per group / Average survival time, excluding nonspecific deaths / Average survival time, including nonspecific deaths / average weight loss of an animal: single i.v.; for Nonspecific deaths per group / animals that lived longer than the duration of the study (20 days): six animals per group; for Average survival time, excluding nonspecific deaths / Average survival time, including nonspecific deaths: study duration 20 days; for toxicity compared to Adriamycin: tumor-bearing mice, nonspecific deaths. The procedure: “Nonspecific death” is death of a treated tumor-bearing animal if its day of death was statistically less (P≦0.05) than the corresponding day of death of a tumor-bearing animal in the untreated control group.
The response of subcutaneously implanted lymphocyte leukemia P-388 (Arthur D. Little Inc., Cambridge, Mass.) to treatment with a Galactomycin I, Galactomycin II, and Doxorubicin was evaluated in male BDF1 mice.
Mice were acclimated in the laboratory one week prior to experimentation. The animals were housed five per cage in a 12-hour light/dark cycle. The animals received filtered water and sterile rodent food ad libitum. The animals were observed daily and clinical signs were noted. Weight of the animals was in the range of 19-21 g at the day of treatment initiation. The mice were healthy, not previously used in other experimental procedures.
There were a total of twelve groups, 10 animals in two control groups (saline only), and six animals in each in 10 agent treatment groups. The groups were treated 24 hours after tumor implantation, as follows:
Tumor cells were implanted in a sub-cutaneous injection of one million cells per mouse and allowed to grow for 24 hours. After that, Adriamycin, Galactomycin I and Galactomycin II were administered as 0.7-10 mg/mL solutions by a single i.v. injection.
Study duration was twenty days after tumor implantation, or nineteen days after treatment initiation.

For the compound `COc1cccc2c1C(=O)c1c(O)c3c(c(O)c1C2=O)C[C@@](O)(C(=O)CO)C[C@@H]3O[C@H]1C[C@H](N)[C@H](O)[C@H](C)O1` [Adriamycin, 14-hydroxydaunomycin, reference compound], the Deaths per group result in series [1] (dose 21 mg/kg) is recorded as “Three”. The Deaths per group in series [1] (dose 21 mg/kg, listed as Doxorubicin) is recorded as 3. For the same compound, in series [1] (male, BDF1, mouse, in vivo, intravenous, 21 mg/kg, single injection in mice, read-out: LD50 (estimated from Table 2 data)), the 50% lethal dose (LD50) – broadly, the dose at which mortality reaches 50% – at 20 days is roughly 21 mg/kg. Further, in series [2] (dose 7 mg/kg), the “Average weight gain/loss from day 1 to day 7” value (shortened to “Average weight gain/loss”) is -0.5 g; the “Nonspecific deaths per group” value is 0; the “Average survival time, excluding nonspecific deaths” value is 15.5 days; the “Average survival time, including nonspecific deaths” value is 15.5 days. Besides, in series [2] (dose 14 mg/kg), the “Average weight gain/loss” value was -1.8 g; the “average weight loss of an animal” value came out at 1.8 g; the “Average survival time, excluding nonspecific deaths” value was greater than 19 days; the “Average survival time, including nonspecific deaths” value is greater than 15 days. Moreover, the “animals that lived longer than the duration of the study (20 days)” value in series [2] (dose 14 mg/kg) was “two”.
For the compound `COc1cccc2c1C(=O)c1c(O)c3c(c(O)c1C2=O)CC(O)(C(=O)CO)CC3OC1CC(NCC(O)C(O)C(O)C(O)COC2OC(CO)C(O)C(O)C2O)C(O)C(C)O1` [Galactomycin I, N-[α-D-galactopyranosyl-(1→6)-β-O-D-sorbityl]doxorubicin], the Deaths per group in series [1] (dose 10 mg/kg) was 0; in series [1] (dose 15 mg/kg) it was 0; in series [1] (dose 20 mg/kg), 0; in series [1] (dose 25 mg/kg), 0; in series [1] (dose 30 mg/kg), 0; in series [1] (dose 40 mg/kg) it was 1. The Deaths per group in series [1] (dose 80 mg/kg) and in series [1] (dose 100 mg/kg) was 6 in each case. Further, in series [1] (dose 40 mg/kg), the “Life span after treatment (except survived animals)” value came out at 2 days. The “toxicity compared to Adriamycin” value in series [1] and in series [2] was “significantly less toxic” throughout. In addition, the “LD50 (estimated from Table 2 data)” value in series [1] (single injection in mice) is 50 to 60 mg/kg. The “Average weight gain/loss” value in series [2] (dose 7 mg/kg) is “+1.7 g”; in series [2] (dose 14 mg/kg) it was “+2.3 g”; in series [2] (dose 20 mg/kg), -0.8 g; in series [2] (dose 40 mg/kg), -0.9 g. In addition, the “Nonspecific deaths per group” value in series [2] (dose 7 mg/kg), in series [2] (dose 14 mg/kg) and in series [2] (dose 20 mg/kg) was 0 each time. Further, the “Average survival time, excluding nonspecific deaths” value is listed as 11.7 days in series [2] (dose 7 mg/kg), 12.2 days in series [2] (dose 14 mg/kg), 16.3 days in series [2] (dose 20 mg/kg) and greater than 18 days in series [2] (dose 40 mg/kg). The “Average survival time, including nonspecific deaths” value in series [2] (dose 7 mg/kg) is given as 11.7 days; in series [2] (dose 14 mg/kg) it was 12.2 days; in series [2] (dose 20 mg/kg), 16.3 days; in series [2] (dose 40 mg/kg) it was greater than 16 days. Moreover, the “average weight loss of an animal” value in series [2] (dose 40 mg/kg) was found to be 0.9 g. For the same compound, the “animals that lived longer than the duration of the study (20 days)” value in series [2] (dose 40 mg/kg) is “two”.
`Br.COc1cccc2c1C(=O)c1c(O)c3c(c(O)c1C2=O)CC(O)(C(=O)CO)CC3OC1CC(NCC(O)C(O)C(OC2OC(CO)C(O)C(O)C2O)C(O)CO)C(O)C(C)O1` [Galactomycin II, N-[β-D-galactopyranosyl-(1→4)-β-O-D-sorbityl]doxorubicin]: the Deaths per group in series [1] (dose 15 mg/kg), in series [1] (dose 20 mg/kg), in series [1] (dose 25 mg/kg), in series [1] (dose 30 mg/kg), in series [1] (dose 40 mg/kg) and in series [1] (dose 50 mg/kg) was 0 throughout. Besides, the Deaths per group in series [1] (dose 80 mg/kg) was 1; in series [1] (dose 100 mg/kg), 3. For the same compound, the “Life span after treatment (except survived animals)” value in series [1] (dose 80 mg/kg) is on record as 2 days. For the same compound, the “toxicity compared to Adriamycin” value in series [1] and in series [2] was “significantly less toxic” each time. In series [1] (single injection in mice), the “LD50 (estimated from Table 2 data)” value is given as roughly 100 mg/kg. In addition, the “Average weight gain/loss” value in series [2] (dose 7 mg/kg) is “+4.3 g”; in series [2] (dose 14 mg/kg) it was “+0.8 g”; in series [2] (dose 40 mg/kg) it was -1.1 g; in series [2] (dose 80 mg/kg), -1.0 g. The “Nonspecific deaths per group” value in series [2] (dose 7 mg/kg), in series [2] (dose 14 mg/kg) and in series [2] (dose 40 mg/kg) was 0 each time. Also, the “Average survival time, excluding nonspecific deaths” value in series [2] (dose 7 mg/kg) is listed as 11.7 days; in series [2] (dose 14 mg/kg), 12.0 days; in series [2] (dose 40 mg/kg) it was 15.0 days; in series [2] (dose 80 mg/kg), greater than 18 days. In addition, the “Average survival time, including nonspecific deaths” value in series [2] (dose 7 mg/kg) is 11.7 days; in series [2] (dose 14 mg/kg) it was 12.0 days; in series [2] (dose 40 mg/kg) it was 15.0 days; in series [2] (dose 80 mg/kg) it was greater than 16 days. The “average weight loss of an animal” value in series [2] (dose 80 mg/kg) is listed as 1.0 g. In addition, the “animals that lived longer than the duration of the study (20 days)” value in series [2] (dose 80 mg/kg) is “two”.
